biological target: T1, human apelin receptor (APJ, APLNR) (Homo sapiens, UniProt P35414); assay: cell-based cAMP assay (TR-FRET) in Chinese hamster ovary cells expressing the apelin receptor; settings: EC50 = 50% of control (apelin-13, 1 nM) response; cAMP in CHO cells, 0.5 h incubation; read-out: Potency Category
T1 construct: host or cells: Chinese hamster ovary (CHO) cells, stably integrated receptor
T1 sequence (P35414 1-380): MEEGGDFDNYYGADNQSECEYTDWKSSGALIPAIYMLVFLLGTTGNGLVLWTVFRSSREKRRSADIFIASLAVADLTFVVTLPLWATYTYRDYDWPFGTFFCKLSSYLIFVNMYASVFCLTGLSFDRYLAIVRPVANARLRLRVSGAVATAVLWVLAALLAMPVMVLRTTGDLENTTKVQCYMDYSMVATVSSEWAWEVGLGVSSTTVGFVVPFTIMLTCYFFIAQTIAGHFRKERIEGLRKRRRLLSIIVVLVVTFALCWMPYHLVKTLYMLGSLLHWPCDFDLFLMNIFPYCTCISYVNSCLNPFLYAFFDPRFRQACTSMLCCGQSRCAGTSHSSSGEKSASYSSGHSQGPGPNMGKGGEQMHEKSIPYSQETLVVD
Experimental: This example illustrates the biological activity of various compounds tested against the APJ receptor.
Commercially available cell lines were used to screen chemical libraries to identify compounds that potently and selectively activated the human apelin receptor. The assays disclosed herein were performed using cell lines from DiscoveX, Inc.
Biological activity was determined to the cell-based assay. This assay detects activation of the receptor by reporting on intracellular cyclic adenosine monophosphate (cAMP) level. Chinese hamster ovary cells engineered to express the stably integrated human appellant receptor (APJ, AGTRL-one, APLNR), pleaded into the wells of the microtiter plate. Cells were stimulated with […] to increase intracellular cyclic AMP. Immediately following, compounds were added to the range of final concentrations 0.0-100 μM, in DMSO (not to exceed a final DMSO concentration greater than 1% v/v), and allowed to incubate with the cells for 0.5 h. At the end of the incubation, cells were lysed to stop APJ signaling and cAMP was quantified using a commercially available competitive immunoassay kit that applies homogenous time-resolved florescence energy transfer (TR-FRET). The assay is based on the competition between a europium (Eu) chelate-labeled cAMP donor tracer and cellular cAMP for binding sites on a cAMP-specific monoclonal antibody labeled with an acceptor fluorophore. When antibodies are bound to the cAMP tracer light emissions at 320 nm stimulate the energy transfer from the donor to the acceptor, which in turn emits light at 665 nm. In the presence of competitive unlabeled cAMP (derived from the activity of the receptor or forskolin-stimulated production of cAMP), the labelled cAMP tracer is dissociated from the cAMP antibody, resulting in a loss of FRET signal. The amount of light emitted by the FRET is inversely proportional to the cAMP generated by the cell/receptor system. Potency and efficacy at APJ are reported in reference to the canonical APJ receptor agonist apelin-13 when tested at 1 nM.
Compound competency is reported as the effective concentration required to effect 50% (EC 50) of the control (apelin—13, 1 nM) response in micromole are (μM) units. Compound efficacy (% response) is reported as a percentage of the maximal apein-13 response at 1 nM (control). Potencies were calculated by fitting a four-point logistic curve to concentration response consisting of at least 10 discrete data points spanning effective range of the compounds in the cell-based assay that measures cAMP. In Table 1, the Potency Categories are A, B, C and D. Category A EC50>500 nM; Category B 200<EC50<500 nM; Category C 100<EC50<200 nM; Category D<100 nM.

EC50 [nM]	SMILES
> 500	COC(=O)c1cc(C(C)(C)C)n2nc(C)c(-c3ccccc3)c2n1 [Compound 1, methyl 7-(tert-butyl)-2-methyl-3-phenyl-8-hydropyrazolo[1,5-a]pyrimidine-5-carboxylate]
> 500	Cc1nn2c(C(C)(C)C)cc(C(=O)O)nc2c1-c1ccccc1 [Compound 2, 7-(tert-butyl)-2-methyl-3-phenyl-8-hydropyrazolo[1,5-a]pyrimidine-5-carboxylic acid]
> 500	Cc1nn2c(C(C)C)cc(C(=O)O)nc2c1-c1ccccc1 [Compound 3, 2-methyl-7-(methylethyl)-3-phenyl-8-hydropyrazolo[1,5-a]pyrimidine-5-carboxylic acid]
> 500	Cc1nn2c(C)cc(C(=O)O)nc2c1-c1ccccc1 [Compound 4, 2,7-dimethyl-3-phenyl-8-hydropyrazolo[1,5-a]pyrimidine-5-carboxylic acid]
> 500	Cc1ccc(-c2c(C)nn3c(C(C)C)cc(C(=O)O)nc23)cc1 [Compound 5, 2-methyl-7-(methylethyl)-3-(4-methylphenyl)-8-hydropyrazolo[1,5-a]pyrimidine-5-carboxylic acid]
> 500	Cc1nn2c(C3CC3)cc(C(=O)O)nc2c1-c1ccccc1 [Compound 6, 7-cyclopropyl-2-methyl-3-phenyl-8-hydropyrazolo[1,5-a]pyrimidine-5-carboxylic acid]
> 500	CC(C)c1cc(C(=O)O)nc2c(-c3ccccc3)cnn12 [Compound 7, 7-(methylethyl)-3-phenyl-8-hydropyrazolo[1,5-a]pyrimidine-5-carboxylic acid]
> 500	Cc1nn2c(C(C)C)cc(C(=O)O)nc2c1-c1ccc(F)cc1 [Compound 8, 3-(4-fluorophenyl)-2-methyl-7-(methylethyl)-8-hydropyrazolo[1,5-a]pyrimidine-5-carboxylic acid]
> 500	COc1ccc(-c2c(C)nn3c(C(C)C)cc(C(=O)O)nc23)cc1 [Compound 9, 3-(4-methoxyphenyl)-2-methyl-7-(methylethyl)-8-hydropyrazolo[1,5-a]pyrimidine-5-carboxylic acid]
> 500	COc1ccc(-c2c(C)nn3c(C(=O)O)cc(C(C)C)nc23)cc1 [Compound 10, 3-(4-methoxyphenyl)-2-methyl-5-(methylethyl)-8-hydropyrazolo[1,5-a]pyrimidine-7-carboxylic acid]
> 500	CCOC(=O)c1cc(C(C)C)n2nc(C3CC3)c(-c3ccccc3)c2n1 [Compound 11, ethyl 2-cyclopropyl-7-(methylethyl)-3-phenyl-8-hydropyrazolo[1,5-a]pyrimidine-5-carboxylate]
> 500	CC(C)c1cc(C(=O)O)nc2c(-c3ccccc3)c(C3CC3)nn12 [Compound 12, 2-cyclopropyl-7-(methylethyl)-3-phenyl-8-hydropyrazolo[1,5-a]pyrimidine-5-carboxylic acid]
> 500	CCc1nn2c(C(C)C)cc(C(=O)O)nc2c1-c1ccccc1 [Compound 13, 2-ethyl-7-(methylethyl)-3-phenyl-8-hydropyrazolo[1,5-a]pyrimidine-5-carboxylic acid]
> 500	Cc1nn2c(C(C)C)cc(C(N)=O)nc2c1-c1ccccc1 [Compound 14, 2-methyl-7-(methylethyl)-3-phenyl-8-hydropyrazolo[1,5-a]pyrimidine-5-carboxamide]
> 500	CNC(=O)c1cc(C(C)C)n2nc(C)c(-c3ccccc3)c2n1 [Compound 15, N-methyl[2-methyl-7-(methylethyl)-3-phenyl(8-hydropyrazolo[1,5-a]pyrimidin-5-yl)]carboxamide]
> 500	Cc1nn2c(C(C)C)cc(C(=O)N(C)C)nc2c1-c1ccccc1 [Compound 16, N,N-dimethyl[2-methyl-7-(methylethyl)-3-phenyl(8-hydropyrazolo[1,5-a]pyrimidin-5-yl)]carboxamide]

EC50 [nM]	SMILES
> 500	CCOC(=O)c1cc(C(C)C)n2nc(C)c(-c3cccc(OC)c3)c2n1 [Compound 18, ethyl 3-(3-methoxyphenyl)-2-methyl-7-(methylethyl)-8-hydropyrazolo[1,5-a]pyrimidine-5-carboxylate]
> 500	CCOC(=O)c1cc(C(C)C)n2nc(C)c(-c3ccccc3Cl)c2n1 [Compound 19, ethyl 3-(2-chlorophenyl)-2-methyl-7-(methylethyl)-8-hydropyrazolo[1,5-a]pyrimidine-5-carboxylate]
100 to 200	Cc1ccccc1-c1c(C)nn2c(C(C)C)cc(C(=O)O)nc12 [Compound 20, 2-methyl-7-(methylethyl)-3-(2-methylphenyl)-8-hydropyrazolo[1,5-a]pyrimidine-5-carboxylic acid]
> 500	Cc1nn2c(C(C)C)cc(C(=O)O)nc2c1-c1ccccc1Cl [Compound 21, 3-(2-chlorophenyl)-2-methyl-7-(methylethyl)-8-hydropyrazolo[1,5-a]pyrimidine-5-carboxylic acid]
> 500	COc1cccc(-c2c(C)nn3c(C(C)C)cc(C(=O)O)nc23)c1 [Compound 22, 3-(3-methoxyphenyl)-2-methyl-7-(methylethyl)-8-hydropyrazolo[1,5-a]pyrimidine-5-carboxylic acid]
> 500	CCOC(=O)c1cc(C(C)C)n2nc(C)c(-c3ccccc3F)c2n1 [Compound 23, ethyl 3-(2-fluorophenyl)-2-methyl-7-(methylethyl)-8-hydropyrazolo[1,5-a]pyrimidine-5-carboxylate]
> 500	CC1=NC2C(C(C)C)=CC(C(=O)O)=NC2=C1c1ccccc1F (centres unmarked) [Compound 24, 3-(2-fluorophenyl)-2-methyl-7-(methylethyl)-8-hydropyrazolo[1,5-a]pyrimidine-5-carboxylic acid]
> 500	CCOC(=O)c1cc(C(C)C)n2nc(C)c(-c3cccc(F)c3)c2n1 [Compound 25, ethyl 3-(3-fluorophenyl)-2-methyl-7-(methylethyl)-8-hydropyrazolo[1,5-a]pyrimidine-5-carboxylate]
> 500	Cc1nn2c(C(C)C)cc(C(=O)O)nc2c1-c1cccc(F)c1 [Compound 26, 3-(3-fluorophenyl)-2-methyl-7-(methylethyl)-8-hydropyrazolo[1,5-a]pyrimidine-5-carboxylic acid]
> 500	CCOC(=O)c1cc(C(C)C)n2nc(C)c(-c3cccc(C)c3)c2n1 [Compound 27, ethyl 2-methyl-7-(methylethyl)-3-(3-methylphenyl)-8-hydropyrazolo[1,5-a]pyrimidine-5-carboxylate]
> 500	Cc1cccc(-c2c(C)nn3c(C(C)C)cc(C(=O)O)nc23)c1 [Compound 28, 2-methyl-7-(methylethyl)-3-(3-methylphenyl)-8-hydropyrazolo[1,5-a]pyrimidine-5-carboxylic acid]
> 500	CCOC(=O)c1cc(C(C)C)n2nc(C)c(-c3ccccc3OC)c2n1 [Compound 29, ethyl 3-(2-methoxyphenyl)-2-methyl-7-(methylethyl)-8-hydropyrazolo[1,5-a]pyrimidine-5-carboxylate]
> 500	CCOC(=O)c1cc(C(C)C)n2nc(C)c(-c3cccc(Cl)c3)c2n1 [Compound 30, ethyl 3-(3-chlorophenyl)-2-methyl-7-(methylethyl)-8-hydropyrazolo[1,5-a]pyrimidine-5-carboxylate]
> 500	COc1ccccc1-c1c(C)nn2c(C(C)C)cc(C(=O)O)nc12 [Compound 31, 3-(2-methoxyphenyl)-2-methyl-7-(methylethyl)-8-hydropyrazolo[1,5-a]pyrimidine-5-carboxylic acid]
> 500	Cc1nn2c(C(C)C)cc(C(=O)O)nc2c1-c1cccc(Cl)c1 [Compound 32, 3-(3-chlorophenyl)-2-methyl-7-(methylethyl)-8-hydropyrazolo[1,5-a]pyrimidine-5-carboxylic acid]
> 500	CCOC(=O)c1cc(CC)n2nc(C)c(-c3ccccc3)c2n1 [Compound 33, ethyl 7-ethyl-2-methyl-3-phenyl-8-hydropyrazolo[1,5-a]pyrimidine-5-carboxylate]

From patent US12006321B2, “Substituted pyrazolo[1,5-a]pyrimidines as apelin receptor agonists” (Sanford Burnham Prebys Medical Discovery Institute, priority 2017, dated 2024)
